Like-named read-outs stand apart in the source and are kept apart here.

One experiment relates to B. cenocepacia J2315. The experiment is described as follows: Minimal Inhibitory Concentration, 2-fold microdilution, resazurin method. It is filed as cell-based, Burkholderia cenocepacia J2315. Conditions: planktonic cells, 8 to 1024 μg/ml tested, two days 37°C.
Experiment [1] deals with T1, B. cenocepacia J2315 glutamate racemase (BcGR) (Burkholderia cenocepacia, UniProt B4EEM8).
T1 sequence (B4EEM8 1-285): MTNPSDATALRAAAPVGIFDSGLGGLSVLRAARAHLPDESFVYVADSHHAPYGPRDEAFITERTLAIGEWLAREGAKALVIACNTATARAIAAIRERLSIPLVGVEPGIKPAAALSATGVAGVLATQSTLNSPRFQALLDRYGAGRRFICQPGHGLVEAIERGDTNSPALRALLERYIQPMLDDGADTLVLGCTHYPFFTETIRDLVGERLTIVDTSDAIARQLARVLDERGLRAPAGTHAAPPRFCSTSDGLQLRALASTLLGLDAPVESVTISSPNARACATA
The experiment is described as follows: BcGR enzymatic activity inhibition, spectrophotometric coupled assay (L-glutamate dehydrogenase/diaphorase). Conditions: for BcGR inhibition in screening: compound 100 μM; for inhibitory effect in the presence of EDTA: excess of EDTA; for mode of inhibition: steady state kinetics, D-Glu 5–50 mM, compound 0–100 μM.

In the next experiment the target is GR from B. anthracis. Particulars: cited from earlier work.
The next experiment concerns the target GR from B. subtilis. Particulars: cited from earlier work.

As for “bis(2,4-bis(trichloromethyl)-1,3,5-triazapentadienato)-zinc(II) complex [(1)]”, the “MIC (concentration necessary to inhibit growth)” value against B. cenocepacia J2315 was “at least 512 μg/ml”. Besides, the IC50 in experiment [1] (20 mM D-Glu, 37°C, pH 8.0) came to 35.3 ± 4.9 µM. Also, the “BcGR inhibition in screening” value in experiment [1] (20 mM D-Glu) is recorded as “almost completely inhibit”. Moreover, in experiment [1], the “inhibitory effect in the presence of EDTA” value is given as “could be observed also in the presence of EDTA” and the mode of inhibition entry is given as “non-competitive”.
For `O=C(O)c1cccc(C(=O)O)n1` [dipicolinic acid], the values for the Ki on GR from B. anthracis (non-competitive inhibitor) and at GR from B. subtilis were 92 µM and 2700 µM, respectively. In experiment [1], the IC50 is 150 ± 30 µM.
With `N[C@H](CC(Cc1ccccc1)C(=O)O)C(=O)O` (stereo partly drawn) [(2R)-2-amino-4-benzylpentanedioic, (2R)-2-amino-4-benzylpentanedioic acid, reference compound], the “BcGR inhibition in screening” value in experiment [1] (20 mM D-Glu) is listed as “did not show any inhibition”.
`O=S(=O)(O)c1ccc(O)c(S(=O)(=O)O)c1` [4-hydroxybenzene-1,3-disulfonate, reference compound]: the Ki on GR from B. anthracis was 59 µM. The “BcGR inhibition in screening” value in experiment [1] (20 mM D-Glu) is “did not show any inhibition”.
In the case of “tris(2,4-bis(trichloromethyl)-1,3,5-triazapentadienate)-Mn(III) complex [(2)]”, the “MIC (concentration necessary to inhibit growth)” value with B. cenocepacia J2315 is “at least 512 μg/ml”. The same compound showed an IC50 in experiment [1] (20 mM D-Glu, 37°C, pH 8.0) of 10 ± 0.8 µM. For the same compound, the “BcGR inhibition in screening” value in experiment [1] (20 mM D-Glu) is reported as “almost completely inhibit”. Moreover, in experiment [1], the “inhibitory effect in the presence of EDTA” value is on record as “could be observed also in the presence of EDTA” and the mode of inhibition result is “non-competitive”.
As to `O=S(=O)(O)c1nc2ccccc2[nH]1` [1-H-benzimidazole-2-sulfonic acid, reference compound], the Ki on GR from B. subtilis is 9 µM. The “BcGR inhibition in screening” value in experiment [1] (20 mM D-Glu) is listed as “did not show any inhibition”.

(Values after article PMC5127577, “Biochemical Characterization of Glutamate Racemase—A New Candidate Drug Target against Burkholderia cenocepacia Infections” (PLoS ONE, 2016).)
